Earlier results as cited in US20220346436A1, “ORALLY DISSOLVING FILMS” (NICOVENTURES TRADING LIMITED, priority 2021, published 2022).

What was measured:
[1] = water / aqueous environment (e.g., saliva)
[2] = when isolated; isomerises to trans-bixin

Row | solubility [1] | chemical stability [2] | Compound | logP value
1 | insoluble in water | chemically unstable when isolated | COC(=O)/C=C/C(C)=C\C=C\C(C)=C\C=C\C=C(C)\C=C\C=C(C)\C=C\C(=O)O [bixin, (2E,4E,6E,8E,10E,12E,14E,16Z,18E)-20-methoxy-4,8,13,17-tetramethyl-20-oxoicosa-2,4,6,8,10,12,14,16,18-nonaenoic acid] | 
2 | water soluble |  | CC(/C=C/C=C(C)/C=C/C(=O)O)=C\C=C\C=C(C)\C=C\C=C(C)\C=C\C(=O)O (stereo in doubt) [norbixin, (2E,4E,6E,8E,10E,12E,14E,16E,18E)-4,8,13,17-tetramethylicosa-2,4,6,8,10,12,14,16,18-nonaenedioic acid] | 

Row | Compound | solubility [1] | chemical stability [2] | logP value
3 | C=C(C)[C@@H]1CCC(C)=C[C@H]1c1c(O)cc(CCCCC)cc1O [CBD, cannabidiol, reference compound] | insoluble in an aqueous environment |  | about 6.5
